# US9109001B2, “3′,5′-cyclic phosphoramidate prodrugs for HCV infection” (priority 2012, dated 2015)
# Where two headings read alike, the source gives them in different places.
# Assays:
# HCV genotype 1b replicon = test: HCV Replicon Assay; type: cell-based; conditions: Zluc (Huh-7-derived) cells, HCV genotype 1b replicon, luciferase reporter, 72 hours, read-out: HCV Replicon EC50
# Experimental: Huh-7-derived cell line (Zluc) that harbors an HCV genotype 1b replicon and a luciferase reporter gene was grown in Dulbecco's Modified Eagle Medium (DMEM) supplemented with 10% fetal bovine serum, 2 mM GlutaMAX, 1% MEM nonessential amino acids, 100 IU/mL penicillin, 100 μg/mL streptomycin, and 0.5 mg/mL Geneticin® (G418). For dose response testing the cells were seeded in 96-well plates at 7.5×10^3 cells per well in a volume of 50 μL, and incubated at 37° C./5% CO2. Drug solutions were made up freshly in Huh-7 media as 2× stocks. Ten additional 5-fold dilutions were prepared from these stocks in DMEM without G418. At least three hours after Zluc cells were seeded, drug treatment was initiated by adding 50 μL of drug dilutions to the plates in duplicate. Final concentrations of drug ranged from 100 μM to […]. Cells were then incubated at 37° C./5% CO2. Alternatively, compounds were tested at two concentrations (1 μM and 10 μM). […] For this, media was removed from the plates via gentle tapping. Fifty microliters of ONE-glo luciferase assay reagent was added to each well. The plates were shaken gently for 3 min at room temperature and luminescence was measured on a Victor^3 V 1420 multilabel counter (Perkin Elmer) with a 1 second read time using a 700 nm cut-off filter. The EC50 values were calculated from dose response curves from the resulting best-fit equations determined by Microsoft Excel and XLfit 4.1 software. When screening at two fixed concentrations, the results were expressed as % inhibition at 1 μM and 10 μM.
# [1] = Stability in fresh human whole blood; type: in vitro ADME; conditions: 0.5 μM, percent unchanged test compound
# Experimental: (§1) Stability in Fresh Whole Blood: Stability of test compounds were determined in fresh human whole blood with K2EDTA as the anticoagulant (stored refrigerated at 2-8° C. and used within 7 days of receipt). The experiment was conducted with three replicates for each time point. Whole blood, pre-incubated at 37° C. for 10-15 minutes, was fortified with a solution of test compound for a final concentration of 0.5 μM and mixed for 30 sec. At intervals (0, 0.5, 1 and 2 hr), three 50-μL aliquots were combined with 200 μL (each) of an ice-cold solution of the internal standard (carbutamide 500 ng/mL in acetonitrile). The samples were vortexed for 30 sec and then centrifuged at 16,100 g for 5 min. The supernatant was analyzed by LC-MS/MS. The MS peak area ratio of the test compound versus the internal standard was calculated and percent unchanged test compound was calculated for each time point using this ratio.
# [2] = Stability in simulated intestinal fluid; type: in vitro ADME; conditions: 100 μM, 2 hours at 37° C.; percent of peak area at time zero
# Experimental: Stability in Simulated Gastric and Intestinal Fluids: Simulated gastric and intestinal fluids containing pepsin and pancreatin respectively were prepared according to the U.S. Pharmacopoeia USP291 procedure (www.pharmacopeia.cn/v29240/usp29nf24s0_ris1s126.html). Test compound (final concentration 100 μM) was incubated in duplicate in the appropriate fluid for 2 hours at 37° C. The samples were quenched with 200 μl cold acetonitrile, vortexed for 30 seconds and then centrifuged at 16,100 g for 10 min. The supernatants were analyzed by HPLC on a C-18 column with UV detection at 252 nm. The time 0 samples were prepared by adding SGF or SIF fluid to the quenching solvent followed by the test compound. Stability of the compound was determined by peak area the test compound after incubation and calculated as percent of the peak area observed at time zero.
# fresh human hepatocytes = test: Release of active metabolite in fresh human hepatocytes; type: in vitro ADME; conditions: 10 μM
# Experimental: Assay for the Release of Active Metabolite in Primary Hepatocytes: Plates of fresh human and mouse hepatocytes were obtained on ice. The medium was removed and replaced with hepatocyte culture medium (William's E supplemented with penicillin-streptomycin, 1% L-glutamine, 1% insulin-transferrin-selenium and 0.1 μM Dexamethasone (Invitrogen) or with Invitro GRO HI medium complemented with Torpedo antibiotics (Celsis)). Cells were left overnight in an incubator at 37° C. to acclimatize to culture and the medium.
# Hepatocyte incubations were conducted at a final volume of 0.5 mL hepatocyte culture medium/well (0.8 million cells/well for human and 0.5 million cells/well for mouse; 12 well plate no overlay, collagen coat). Culture medium from overnight incubation of cells was removed and replaced with fresh medium, pre-warmed to 37° C., containing 10 μM of test compound from a stock solution in DMSO (final DMSO concentration was 0.1%). At each specific time point, incubation medium was removed and cell monolayers were carefully washed two times with ice-cold PBS. Following the last wash, all PBS was carefully removed and 1.0 mL of extraction solution (ice-cold 70% methanol/30% water) added. Cells were scraped off and suspended in the extraction solution, transferred to 2 mL polypropylene microfuge tubes and intracellular contents extracted overnight at −20° C.
# After the overnight treatment the cellular extracts were prepared by centrifugation at 16,000×g for 10 min to remove cellular debris. The remaining sample was then dried using a refrigerated centrivap concentrator. Dry extracts were reconstituted in 1000 μL of HPLC-grade water and centrifuged at 16,000×g for 10 min. Aliquots (100 μL each) of the supernatant were transferred into a 96 well plate and internal standard (4 ng/mL final concentration) was added as the internal standard (IS) for LC-MS/MS analysis.
# The incubation time points were 6, 24 and 48 hours for human hepatocytes and 1, 4, 8, 12 and 24 hours for mouse hepatocytes.
# Zluc cells = test: Cytotoxicity evaluation (CellTiter-Blue Cell Viability Assay); type: cell-based, human; conditions: read-out: HCV Replicon CC50
# [3] = as above; type: cell-based, human; conditions: human, Zluc cells, read-out: HCV Replicon CC50
# Stability in mouse blood = type: in vitro ADME; conditions: on ice, percent unchanged test compound
# Experimental: as §1
# The stability in mouse blood was determined on ice at 0, 0.5 and 1 hr as above.
# [4] = Stability in human liver microsomes; type: in vitro ADME; conditions: 10 μM, 1.0 mg/mL protein, NADPH, 60 min; percent unchanged
# Experimental: Stability in Liver and Intestinal Subcellular Fractions: Stability of test compounds were determined in subcellular fractions (microsomes and S9) of human liver and intestine in duplicate for each matrix. Pooled liver and intestinal microsomal, intestinal and liver S9 proteins (1.0 mg/mL), suspended in incubation buffer (100 mM potassium phosphate, pH 7.4, 5 mM MgCl2, and 0.1 mM EDTA), were preincubated for 5 min at 37° C. with 10 μM of a test compound from a 10 mM stock solution in DMSO (final DMSO concentration was 0.1%); the reaction was initiated by the addition of NADPH (3 mM final concentration). At specific times (0 and 60 min), 0.1 mL samples were taken and the reaction terminated by the addition of 4 volumes of stop solution (acetonitrile with 500 ng/mL carbutamide as an internal standard). The samples were vortexed for 30 sec and then centrifuged at 16,000 g for 10 min. 100 μL of supernatants were transferred to 96 deep-well plates preloaded with 100 μL distilled water and analyzed after mixing by LC-MS/MS. The MS peak area ratio of the test compound versus the internal standard was calculated and percent unchanged test compound over 60 minutes was calculated using this ratio.
smiles,measurement,setting,value
"CCOC(=O)C(C)(C)NP1(=O)OC[C@H]2O[C@@H](n3cnc4c(OCC)nc(N)nc43)[C@](C)(F)[C@@H]2O1 (single isomer, unassigned) [Compound 7 Diastereomer 2]",EC50,HCV genotype 1b replicon,< 250 nM
same,Stability WB_Human (37° C.; 2 hr),[1],36%
same,Stability SIF,[2],102%
same,FHH TP AUC (pmol · hr/mill cells),fresh human hepatocytes,830 pmol · hr/mill cells
same,CC50,Zluc cells,> 50000 nM
"CCOC(=O)C(C)(C)NP1(=O)OC[C@H]2O[C@@H](n3cnc4c(OCC)nc(N)nc43)[C@](C)(F)[C@@H]2O1 (single isomer, unassigned) [Compound 7 Diastereomer 1]",EC50,"HCV genotype 1b replicon; Hepatitis C virus, 72 h",250 to 1000 nM
same,Stability WB_Human (37° C.; 2 hr),[1],96%
same,Stability SIF,[2],91%
same,FHH TP AUC (pmol · hr/mill cells),fresh human hepatocytes,1148 pmol · hr/mill cells
same,CC50,[3],> 50000 nM
"CCOc1nc(N)nc2c1ncn2[C@@H]1O[C@@H]2COP(=O)(N[C@@H](CC)COC(=O)C(C)C)O[C@H]2[C@@]1(C)F (single isomer, unassigned) [Compound 8 Diastereomer 1]",EC50,"HCV genotype 1b replicon; Hepatitis C virus, 72 h",< 250 nM
same,Stability WB_Human (37° C.; 2 hr),[1],18%
same,Stability SIF,[2],15%
same,FHH TP AUC (pmol · hr/mill cells),fresh human hepatocytes,308 pmol · hr/mill cells
same,CC50,[3],> 50000 nM
"CCOc1nc(N)nc2c1ncn2[C@@H]1O[C@@H]2COP(=O)(N[C@@H](CC)COC(=O)C(C)C)O[C@H]2[C@@]1(C)F (single isomer, unassigned) [Compound 8 Diastereomer 2]",EC50,HCV genotype 1b replicon,< 250 nM
same,Stability WB_Human (37° C.; 2 hr),[1],1%
same,Stability SIF,[2],69%
same,FHH TP AUC (pmol · hr/mill cells),fresh human hepatocytes,359 pmol · hr/mill cells
same,CC50,Zluc cells,> 50000 nM
"CCOc1nc(N)nc2c1ncn2[C@@H]1O[C@@H]2COP(=O)(N[C@@H](C)C(=O)OCC(C)C)O[C@H]2[C@@]1(C)F (single isomer, unassigned) [Compound 4 Diastereomer 2]",EC50,HCV genotype 1b replicon,< 250 nM
same,Stability WB_Human (37° C.; 2 hr),[1],1%
same,Stability SIF,[2],BLD^a
same,FHH TP AUC (pmol · hr/mill cells),fresh human hepatocytes,1575 pmol · hr/mill cells
same,CC50,Zluc cells,> 50000 nM
"CCOc1nc(N)nc2c1ncn2[C@@H]1O[C@@H]2COP(=O)(N[C@@H](C)COC(=O)C(C)C)O[C@H]2[C@@]1(C)F (single isomer, unassigned) [Compound 3 Diastereomer 2]",EC50,"HCV genotype 1b replicon; Hepatitis C virus, 72 h",< 250 nM
same,Stability WB_Human (37° C.; 2 hr),[1],1%
same,Stability SIF,[2],39%
same,FHH TP AUC (pmol · hr/mill cells),fresh human hepatocytes,1426 pmol · hr/mill cells
same,CC50,[3],> 50000 nM
same,Stability WB_Mouse (ice; 1 hr),Stability in mouse blood,20%
same,Stability HLM (1 hr),[4],0.3%
CCOc1nc(N)nc2c1ncn2[C@@H]1O[C@@H]2COP(=O)(N[C@@H](C)COC(=O)C(C)C)O[C@H]2[C@@]1(C)F (stereo partly shown) [Compound 3],EC50,"HCV genotype 1b replicon; Hepatitis C virus, 72 h",< 250 nM
same,CC50,[3],> 50000 nM
"CCOc1nc(N)nc2c1ncn2[C@@H]1O[C@@H]2COP(=O)(N[C@@H](C)C(=O)OC(C)C)O[C@H]2[C@@]1(C)O (single isomer, unassigned) [Compound 5 Diastereomer 1]",EC50,HCV genotype 1b replicon,250 to 1000 nM
same,Stability WB_Human (37° C.; 2 hr),[1],87%
same,Stability SIF,[2],5%
same,FHH TP AUC (pmol · hr/mill cells),fresh human hepatocytes,3615 pmol · hr/mill cells
same,CC50,[3],> 50000 nM
"CCOc1nc(N)nc2c1ncn2[C@@H]1O[C@@H]2COP(=O)(N[C@@H](C)C(=O)OCC(C)C)O[C@H]2[C@@]1(C)F (single isomer, unassigned) [Compound 4 Diastereomer 1]",EC50,"HCV genotype 1b replicon; Hepatitis C virus, 72 h",< 250 nM
same,Stability WB_Human (37° C.; 2 hr),[1],77%
same,Stability SIF,[2],42%
same,FHH TP AUC (pmol · hr/mill cells),fresh human hepatocytes,1759 pmol · hr/mill cells
same,CC50,[3],> 50000 nM
same,Stability WB_Mouse (ice; 1 hr),Stability in mouse blood,1%
"CCOc1nc(N)nc2c1ncn2[C@@H]1O[C@@H]2COP(=O)(N[C@@H](C)C(=O)OC3CCCC3)O[C@H]2[C@@]1(C)F (single isomer, unassigned) [Compound 10 Diastereomer 2]",EC50,HCV genotype 1b replicon,< 250 nM
same,Stability WB_Human (37° C.; 2 hr),[1],80%
same,Stability SIF,[2],67%
same,FHH TP AUC (pmol · hr/mill cells),fresh human hepatocytes,2752 pmol · hr/mill cells
same,CC50,Zluc cells,≤ 50000 nM
"CCOc1nc(N)nc2c1ncn2[C@@H]1O[C@@H]2COP(=O)(N[C@@H](C)C(=O)OC(C)C)O[C@H]2[C@@]1(C)O (single isomer, unassigned) [Compound 5 Diastereomer 2]",EC50,HCV genotype 1b replicon,1000 to 10000 nM
same,Stability WB_Human (37° C.; 2 hr),[1],83%
same,Stability SIF,[2],77%
same,FHH TP AUC (pmol · hr/mill cells),fresh human hepatocytes,2108 pmol · hr/mill cells
same,CC50,Zluc cells,> 50000 nM
"CCOc1nc(N)nc2c1ncn2[C@@H]1O[C@@H]2COP(=O)(N[C@@H](C)C(=O)OC3CCCC3)O[C@H]2[C@@]1(C)F (single isomer, unassigned) [Compound 10 Diastereomer 1]",EC50,"HCV genotype 1b replicon; Hepatitis C virus, 72 h",< 250 nM
same,Stability WB_Human (37° C.; 2 hr),[1],5%
same,Stability SIF,[2],2%
same,FHH TP AUC (pmol · hr/mill cells),fresh human hepatocytes,1944 pmol · hr/mill cells
same,CC50,[3],> 50000 nM
"CCOc1nc(N)nc2c1ncn2[C@@H]1O[C@@H]2COP(=O)(NCCC(=O)OC(C)C)O[C@H]2[C@@]1(C)F (single isomer, unassigned) [Compound 2 Diastereomer 1]",EC50,"HCV genotype 1b replicon; Hepatitis C virus, 72 h",250 to 1000 nM
same,Stability WB_Human (37° C.; 2 hr),[1],98%
same,Stability SIF,[2],98%
same,FHH TP AUC (pmol · hr/mill cells),fresh human hepatocytes,BLD^a
same,CC50,[3],> 50000 nM
same,Stability WB_Mouse (ice; 1 hr),Stability in mouse blood,15%
same,Stability HLM (1 hr),[4],6.7%
